Data on one molecule can be found in PMC4383003, “Transfer hydrogenation catalysis in cells as a new approach to anticancer drug design” (Nature Communications, 2015).

For data set [1], the system named is A2780 cells. In words: Mitochondrial membrane assay (JC-10 flow cytometry). The format is cell-based, human. The following applies: A2780, complex 2 and sodium formate, 24 h. How it is done: Analysis of the changes of mitochondrial potential in A2780 cells after exposure to complex 2 and sodium formate was carried out using the Abcam, JC-10 Mitochondrial Membrane Potential Assay kit according to the manufacturer’s instructions. Briefly, 1.0 × 10^6 cells were seeded in six-well plates and left to incubate for 24 h in drug-free medium at 310 K in a humidified atmosphere. […] Supernatants were removed by suction and each well was washed with PBS before detaching the cells using trypsin-EDTA. Staining of the samples was done in flow cytometry tubes protected from light, incubating for 30 min at room temperature. Samples were immediately analysed on a Beckton Dickinson FAC Scan with fluorescence detection. Data were processed using FlowJo software. This experiment included carbonyl cyanide m-chlorophenyl hydrazine as positive control.
Background: A flow cytometer gives signals particle by particle.

Data set [2] concerns A2780 cells. As to the kind of experiment: ROS determination by flow cytometry. The format is cell-based, human. The following applies: A2780, complex 2 and 2 mM sodium formate, 24 h. On the procedure: Flow cytometry analysis of total induction of ROS in A2780 cells caused by exposure to complex 2 and sodium formate was carried out using the Total ROS detection kit (Enzo Life Sciences) according to the supplier’s instructions. Briefly, 1.0 × 10^6 A2780 cells per well were seeded in a six-well plate. […] After 24 h of drug exposure, supernatants were removed by suction and cells were washed and harvested. Staining was achieved by resuspending the cell pellets in buffer containing the green fluorescent reagent. Cells were analysed in a Becton Dickinson FACScan Flow Cytometer using Ex/Em: 490/525 nm for the oxidative stress detection. Data were processed using Flowjo software. The experiment included cells treated with pyocyanin for 30 min as positive control.

The test system of data set [3] is A2780 ovarian cancer cells. In words: Cell viability on co-administration of Ru complexes (1/3 x IC50) with formate or acetate. The format is cell-based, human. The following applies: for Cell viability percentages / Cell viability: A2780, complex 1/3 x IC50, 24 h. How it is done:
Cell viability assays were carried out with complexes 1–8 in A2780 ovarian cancer cells. These experiments were carried out as described above with the following modifications: a fixed concentration of each Ru complex equal to 1/3 × IC50 was used in co-administration with three different concentrations of sodium formate or sodium acetate (0.5, 1.0 and 2.0 mM). To prepare the stock solution of the drug, the complex was dissolved in 5% dimethylsulfoxide and diluted in a 1:1 mixture of 0.9% saline:cell culture medium. This stock was further diluted using RPMI-1640 until working concentrations were achieved. Separately, stock solutions of sodium formate or sodium acetate were prepared in saline. The complex and formate were added to each well independently, but within 5 min of each other.
Supplementary Table 7: Percent cell viability of A2780 ovarian cancer cells exposed to equipotent concentrations of ruthenium complexes 1-3 and 5-8 (1/3 x […]
The experiments included 48 h of pre-incubation and 72 h of drug recovery, both in drug-free medium at 310 K in a 5% CO2 humidified atmosphere. All the experiments were performed as duplicates of triplicates in independent experiments and the error bars were calculated as the standard deviation from the mean.
Supplementary Table 11: Cell viability (%) of A2780 ovarian cancer cells exposed […]
administered with different concentrations of sodium acetate (0, 0.5, 1 and 2 mM).
The experiments involved 48 h of pre-incubation and 72 h of drug recovery, both in […]
Cell viability percentages (%)
Complex Acetate concentration (mM)

Data set [4] can be described thus: Transfer hydrogenation of NAD+ to 1,4-NADH with formate, followed by 1H NMR. The following applies: NAD+ 2 mol equiv, formate 25 mol equiv, 310 K, pH* 7.2. On the procedure:
Complexes 1–7 were dissolved in MeOH-d4/D2O (5:1 v/v, 1.4 mM, 4 ml). Solutions of sodium formate (35 mM, 4 ml) and NAD^+ in D2O (2.8 mM, 2 ml) were also prepared and incubated at 310 K. In a typical experiment, 200-μl aliquots of each solution were added to a 5-mm NMR tube and the pH* adjusted to 7.2±0.1 (total volume 0.635 ml, final concentrations: Ru complex 0.44 mM; NAD^+ 0.88 mM; formate 11.02 mM; molar ratio 1:2:25). ^1H NMR spectra were recorded at 310 K every 162 s until the completion of the reaction.
Molar ratios of NAD^+ and NADH were determined by integrating the peaks at 9.33 and 6.96 p.p.m. (NAD^+ and 1,4-NADH, respectively). The turnover number for the reaction was calculated as follows: […]
where In is the integral of the signal at n p.p.m. and [NAD^+]0 is the concentration of NAD^+ at the start of the reaction.

Data set [5] has as its system MRC5 human fetal lung fibroblasts. As to the kind of experiment: In vitro growth inhibition assay (SRB), MRC5. The format is cell-based. How it is done: A2780 human ovarian carcinoma and MRC5 human fetal lung fibroblasts were obtained from the European Collection of Cell Cultures. Both cell lines were grown in Roswell Park Memorial Institute medium (RPMI-1640) supplemented with 10% of fetal calf serum, 1% of 2 mM glutamine and 1% penicillin/streptomycin. All cells were grown as adherent monolayers at 310 K in a 5% CO2-humidified atmosphere and passaged at ca. 70–80% confluency.
The antiproliferative activity of complexes 1–8 was determined in A2780 ovarian cancer cells and MRC5 fibroblasts. Briefly, 96-well plates were used to seed 5,000 cells per well. The plates were left to pre-incubate with drug-free medium at 310 K for 48 h before adding different concentrations of the compounds to be tested. A drug exposure period of 24 h was allowed. After this, supernatants were removed by suction and each well was washed with PBS. […]
Supplementary Table 10: Antiproliferative activity of complex 2 in A2780 ovarian cancer cells and normal MRC5 human fetal lung fibroblasts, when co-administered with different concentrations of sodium formate (0 and 2 mM). All the experiments were performed as duplicates of triplicates in independent experiments and the error bars were calculated as the standard deviation from the mean. […]

“And” between values parts separate entries of the source, which are not always exact repeats. Identical values can stand only once.

In the case of `Cc1ccc(C(C)C)cc1.Cc1ccc(S(=O)(=O)[N-]CCN)cc1.[Cl-].[Ru+2]` [Complex 2, [(p-cym)Ru(TsEn)Cl]], the “changes in mitochondrial membrane potential” value in the data set on A2780 cells [1] is recorded as “No changes in the mitochondrial membrane potential were observed”. Moreover, in the data set on A2780 cells [2], the “levels of reactive oxygen species (ROS) in treated cells” value was “comparable to those arising from treatment with N-acetyl-L-cysteine”. Besides, the Cell viability percentages in data set [3] (acetate 0 mM) is 70.8 ± 0.6%; in data set [3] (acetate 0.5 mM), 69.4 ± 0.9%; in data set [3] (acetate 1 mM), 68.9 ± 0.3%; in data set [3] (acetate 2 mM) it was 67.1 ± 0.6%. The Cell viability in data set [3] (formate 0.5 mM) was 49.7 ± 0.8%; in data set [3] (formate 1 mM) it was 38.2 ± 0.6%; in data set [3] (formate 2 mM) it was 1.5 ± 0.1% and ~1%. Also, the “decrease in cell survival” value in data set [3] (A2780, formate increased from 0 to 2 mM) is given as “ca. 50 fold”. In addition, in data set [4] (23% MeOH-d4/77% D2O), the “TOF D2O/MeOH-d4” value came out at 2.88 ± 0.06 h⁻¹. Besides, the “TOF D2O” value in data set [4] (D2O) amounted to 1.58 ± 0.04 h⁻¹. Also, half-maximal inhibition in data set [5] (MRC5, formate 0 mM) (IC50) required 48.5 ± 0.4 µM. In addition, in data set [5] (ratio MRC5 fibroblasts / A2780, no formate), the selectivity factor is 3.6±0.2.
